Results from patent US10093683B2, “Factor XIa inhibitors” (Merck Sharp & Dohme Corp., priority 2014, dated 2018).
Read-outs that look alike come from different tables or passages of the source.

Molecular target: human Factor XIa (Homo sapiens (Human), UniProt P03951)
Assay: Factor XIa Assay
Format: biochemical
Details: read-out: FXIa Ki
Experimental: The effectiveness of a compound of the present invention as an inhibitor of Coagulation Factor XIa can be determined using a relevant purified serine protease, and an appropriate synthetic substrate. The rate of hydrolysis of the chromogenic or fluorogenic substrate by the relevant serine protease was measured both in the absence and presence of compounds of the present invention. Assays were conducted at room temperature or at 37° C. […] A decrease in the rate of fluorescence change in the presence of inhibitor is indicative of enzyme inhibition. Such methods are known to one skilled in the art. The results of this assay are expressed as the inhibitory constant, Ki.
Factor XIa determinations were made in 50 mM HEPES buffer at pH 7.4 containing 150 mM NaCl, 5 mM CaCl2, and 0.1% PEG 8000 (polyethylene glycol; JT Baker or Fisher Scientific). Determinations were made using purified human Factor XIa at a final concentration of 40 pM (Sekisui Diagnostics) and he synthetic substrate, Z-Gly-Pro-Arg-AFC, TFA salt (Sigma #C0980) at a concentration of 100 μM.
Times required to achieve equilibration between enzyme and inhibitor were determined in control experiments. Initial velocities of product formation in the absence (Vo) or presence of inhibitor (Vi) were measured. Assuming competitive inhibition, and that unity is negligible compared Km/[S], [I]/e, and [I]/e (where [S], [I], and e respectively represent the total concentrations, of substrate, inhibitor and enzyme), the equilibrium constant (Ki) for dissociation of the inhibitor from the enzyme can be obtained from the dependence of Vo/Vi on [I] shown in the following equation.

[1] = purified human Factor XIa 40 pM, Z-Gly-Pro-Arg-AFC 100 μM, pH 7.4

human Factor XIa, sequence (P03951 388-625): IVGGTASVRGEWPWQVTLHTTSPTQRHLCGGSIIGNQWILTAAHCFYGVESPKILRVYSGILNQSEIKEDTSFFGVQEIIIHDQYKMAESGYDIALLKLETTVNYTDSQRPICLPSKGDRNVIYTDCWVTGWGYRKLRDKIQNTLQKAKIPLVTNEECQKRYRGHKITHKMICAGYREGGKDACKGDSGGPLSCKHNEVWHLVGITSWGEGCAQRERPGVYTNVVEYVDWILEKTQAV
human Factor XIa, sequence (P03951 19-387 partner): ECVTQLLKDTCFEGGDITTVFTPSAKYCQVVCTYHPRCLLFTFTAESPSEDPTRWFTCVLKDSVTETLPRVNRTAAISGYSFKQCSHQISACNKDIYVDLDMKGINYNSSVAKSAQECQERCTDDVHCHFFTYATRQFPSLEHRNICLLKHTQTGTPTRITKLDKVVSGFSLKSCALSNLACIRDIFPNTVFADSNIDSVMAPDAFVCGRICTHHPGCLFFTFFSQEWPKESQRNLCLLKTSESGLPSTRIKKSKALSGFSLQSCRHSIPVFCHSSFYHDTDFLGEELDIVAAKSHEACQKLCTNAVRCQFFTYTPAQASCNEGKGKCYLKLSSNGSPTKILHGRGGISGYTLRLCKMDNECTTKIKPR

Row | Compound | Ki [1] [nM] | Ki [nM]
1 | COC(=O)Nc1ccc(C(=O)NCC(=O)N2CCC3(C2)OC(=O)Nc2ccc(Cl)cc23)cc1 (racemic) [Example 23, methyl (4-((2-(6-chloro-2-oxo-1,2-dihydrospiro[benzo[d][1,3]oxazine-4,3′-pyrrolidin]-1′-yl)-2-oxoethyl)carbamoyl)phenyl)carbamate] | 248 | 
2 | COC(=O)Nc1ccc(C(=O)NC2(C(=O)N3CCC4(C3)OC(=O)Nc3ccc(Cl)cc34)Cc3ccccc3C2)cc1 (racemic) [Example 26, methyl (4-((2-(6-chloro-2-oxo-1,2-dihydrospiro[benzo[d][1,3]oxazine-4,3′-pyrrolidin]-1′-ylcarbonyl)-2,3-dihydro-1H-inden-2-yl)carbamoyl)phenyl)carbamate] | ≥ 5000 | 
3 | COC(=O)Nc1ccc(C(=O)NC(Cc2cc[nH]n2)C(=O)N2CCC3(C2)OC(=O)Nc2ccc(Cl)cc23)cc1 (racemic) [Example 28, methyl (4-((1-(6-chloro-2-oxo-1,2-dihydrospiro[benzo[d][1,3]oxazine-4,3′-pyrrolidin]-1′-yl)-1-oxo-3-(1H-pyrazol-3-yl)propan-2-yl)carbamoyl)phenyl)carbamate] | 63.7 | 
4 | O=C1Nc2ccc(Cl)cc2[C@@]2(CCCN(C(=O)C(Cc3ccc(F)cc3)c3nc4ccc(C(=O)O)cc4[nH]3)C2)O1 (single isomer, unassigned) [Example 132A (isomer A)] | 61.7 | 
5 | O=C1Nc2ccc(Cl)cc2[C@@]2(CCCN(C(=O)C(Cc3ccc(F)cc3)c3nc4ccc(C(=O)O)cc4[nH]3)C2)O1 (single isomer, unassigned) [Example 132A (isomer B)] | 449 | 
6 | COC(=O)Nc1ccc(C(=O)N[C@@H](Cc2ccccc2)C(=O)N2CC[C@@]3(C2)OC(=O)Nc2ccccc23)cc1 [Example 2, methyl (4-(((S)-1-oxo-1-((R)-2-oxo-1,2-dihydrospiro[benzo[d][1,3]oxazine-4,3′-pyrrolidin]-1′-yl)-3-phenylpropan-2-yl)carbamoyl)phenyl)carbamate] | 220 | 
7 | COC(=O)Nc1ccc(C(=O)N[C@@H](Cc2ccccc2)C(=O)N2CCCCC3(C2)OC(=O)Nc2ccc(Cl)cc23)cc1 (stereo partly drawn) [Example 4, methyl (4-(((2S)-1-(6′-chloro-2′-oxo-1′,2′-dihydrospiro[azepane-3,4′-benzo[d][1,3]oxazin]-1-yl)-1-oxo-3-phenylpropan-2-yl)carbamoyl)phenyl)carbamate] | 4600 | 
8 | COC(=O)Nc1ccc(C(=O)N[C@@H](Cc2ccccc2)C(=O)N2CC3(C2)OC(=O)Nc2ccc(Cl)cc23)cc1 [Example 5, (S)-methyl (4-((1-(6′-chloro-2′-oxo-1′,2′-dihydrospiro[azetidine-3,4′-benzo[d][1,3]oxazin]-1-yl)-1-oxo-3-phenylpropan-2-yl)carbamoyl)phenyl)carbamate] | > 5000 | 

The next lines start with the values.

Row | Ki [1] [nM] | Ki [nM] | Compound
9 | 5000 |  | COC(=O)Nc1ccc(C(=O)N[C@@H](Cc2ccccc2)C(=O)N2CCC3(C2)NC(=O)Nc2ccc(Cl)cc23)cc1 (single isomer, unassigned) [Example 19a]
10 | 708 |  | COC(=O)Nc1ccc(C(=O)N[C@@H](Cc2ccccc2)C(=O)N2CCC3(C2)NC(=O)Nc2ccc(Cl)cc23)cc1 (single isomer, unassigned) [Example 19b]
11 | 4.21 |  | COC(=O)Nc1ccc(C(=O)NC(C[C@@H]2CCCO2)C(=O)N2CCC[C@@]3(C2)OC(=O)Nc2ccc(Cl)c(F)c23)cc1 (single isomer, unassigned) [Example 116B]
12 | 99.9 |  | COC(=O)Nc1ccc(C(=O)NC(C[C@H]2CCCO2)C(=O)N2CCC[C@@]3(C2)OC(=O)Nc2ccc(Cl)c(F)c23)cc1 (single isomer, unassigned) [Example 117B]
13 | 1880 |  | COC(=O)Nc1ccc(-c2nc(C(Cc3ccccc3)C(=O)N3CCCC4(C3)OC(=O)Nc3ccc(Cl)c(F)c34)[nH]c2Cl)cc1 (single isomer, unassigned) [Example 126A, methyl (4-(5-chloro-2-(1-(6-chloro-5-fluoro-2-oxo-1,2-dihydrospiro[benzo[d][1,3]oxazine-4,3′-piperidin]-1′-yl)-1-oxo-3-phenylpropan-2-yl)-1H-imidazol-4-yl)phenyl)carbamate]
14 | 154 |  | COC(=O)Nc1ccc(-c2nc(C(Cc3ccccc3)C(=O)N3CCCC4(C3)OC(=O)Nc3ccc(Cl)c(F)c34)[nH]c2Cl)cc1 (single isomer, unassigned) [Example 126B, methyl (4-(5-chloro-2-(1-(6-chloro-5-fluoro-2-oxo-1,2-dihydrospiro[benzo[d][1,3]oxazine-4,3′-piperidin]-1′-yl)-1-oxo-3-phenylpropan-2-yl)-1H-imidazol-4-yl)phenyl)carbamate]
15 | 320 |  | COC(=O)Nc1ccc(-c2nnc(C(Cc3ccccc3)C(=O)N3CC[C@@]4(C3)OC(=O)Nc3ccc(Cl)c(F)c34)o2)cc1 (single isomer, unassigned) [Example 129B]
16 | 360 |  | COC(=O)Nc1ccc(-c2ncc(C(Cc3ccccc3)C(=O)N3CCC[C@@]4(C3)OC(=O)Nc3ccc(Cl)c(F)c34)[nH]2)cc1 (single isomer, unassigned) [Example 130A]
17 | > 875 |  | COC(=O)Nc1ccc(-c2ncc(C(Cc3ccccc3)C(=O)N3CCC[C@@]4(C3)OC(=O)Nc3ccc(Cl)c(F)c34)[nH]2)cc1 (single isomer, unassigned) [Example 130B]
18 |  | 1600 | O=C1Nc2ccc(Cl)cc2C2(CCN(C(=O)[C@H](Cc3ccccc3)NC(=O)c3ccc(C(=O)O)cc3)C2)O1 (single isomer, unassigned) [Example 140a]
19 |  | 5000 | O=C1Nc2ccc(Cl)cc2C2(CCN(C(=O)[C@H](Cc3ccccc3)NC(=O)c3ccc(C(=O)O)cc3)C2)O1 (single isomer, unassigned) [Example 140b]
20 | 3470 |  | COC(=O)Nc1ccc(C(=O)N[C@@H](Cc2ccccc2)C(=O)N2CC[C@]3(C2)OC(=O)Nc2ncc(Cl)cc23)cc1 [Example 1a, methyl (4-(((S)-1-((S)-6-chloro-2-oxo-1,2-dihydrospiro[pyrido[2,3-d][1,3]oxazine-4,3′-pyrrolidin]-1′-yl)-1-oxo-3-phenylpropan-2-yl)carbamoyl)phenyl)carbamate]
21 | 246 |  | COC(=O)Nc1ccc(C(=O)N[C@@H](Cc2ccccc2)C(=O)N2CC[C@@]3(C2)OC(=O)Nc2ncc(Cl)cc23)cc1 [Example 1b, methyl (4-(((S)-1-((R)-6-chloro-2-oxo-1,2-dihydrospiro[pyrido[2,3-d][1,3]oxazine-4,3′-pyrrolidin]-1′-yl)-1-oxo-3-phenylpropan-2-yl)carbamoyl)phenyl)carbamate]
22 | 815 |  | COC(=O)Nc1ccc(C(=O)N[C@@H](Cc2ccccc2)C(=O)N2CCC[C@]3(C2)OC(=O)Nc2ccc(Cl)cc23)cc1 [Example 3a, methyl (4-(((S)-1-((S)-6-chloro-2-oxo-1,2-dihydrospiro[benzo[d][1,3]oxazine-4,3′-piperidin]-1′-yl)-1-oxo-3-phenylpropan-2-yl)carbamoyl)phenyl)carbamate]
23 | 5000 |  | COC(=O)Nc1ccc(C(=O)N[C@@H](Cc2ccccc2)C(=O)N2CCC[C@]3(C2)OC(=O)Nc2ccc(F)cc23)cc1 [Example 8b, methyl (4-(((S)-1-((S)-6-fluoro-2-oxo-1,2-dihydrospiro[benzo[d][1,3]oxazine-4,3′-piperidin]-1′-yl)-1-oxo-3-phenylpropan-2-yl)carbamoyl)phenyl)carbamate]
